What was measured:
[1] = system: healthy volunteer population; assay: Subjective effects in humans (psychedelic experience questionnaires, 5D-ASC, VAS); assay type: in vivo
Method: Doses of any of the compounds herein can be 20-300 mg. […] Compounds can be administered a single dose or multiple doses, up to three times per day. […] The compounds can be administered before, during, or after the individual has the sensation of pain.

Mice = assay: Acute pain: mouse tail flick; conditions: for MPE, tail flick: model of acute pain (FIG. 3)

Structure (SMILES): CN[C@H](C)Cc1ccc2c(c1)OCO2 [R-MDMA]
- subjective experience on standard psychedelic experience questionnaires ([1]; R-MDMA 75 mg, 125 mg, 175 mg or 225 mg, compared to racemic MDMA): differentiated subjective experience
- measures of emotional breakthrough ([1]; R-MDMA 75 mg, 125 mg, 175 mg or 225 mg, healthy volunteer population): dose dependent changes
- psychedelic-type effects (5D-ASC total OAV score) ([1]; R-MDMA 300 mg compared with S-MDMA (125 mg), expected): greater psychedelic-type effects
- latency of the tail flick (Mice; R-MDMA 17 and 30 mg/kg PO, 30, 60 and 90 minutes after administration, comparable to morphine (FIG. 2)): statistically significant increase
- MPE, tail flick (Mice; R-MDMA 17 and 30 mg/kg PO): 60%
- % MPE (percent of maximal possible effect), tail flick (Mice; R-MDMA treated animals, 60 and 90 minutes post-treatment): significantly increased

Structure (SMILES): CN[C@@H](C)Cc1ccc2c(c1)OCO2 [S-MDMA]
- subjective stimulation (VAS) ([1]; 125 mg of S-MDMA vs 125 mg of R-MDMA, postulated): greater subjective stimulation

Structure (SMILES): CN1CC[C@]23c4c5ccc(O)c4O[C@H]2[C@@H](O)C=C[C@H]3[C@H]1C5 [morphine, reference compound]
- MPE, tail flick (Mice; morphine 4 mg/kg SC): 80%
